Measurements as given in patent US7737185B2 (Repros Therapeutics Inc., priority 2001, dated 2010).

Tests used:
[1] = following a single dose; cited from earlier work
serum cholesterol = assay: Serum cholesterol in male baboons; type: in vivo; conditions: 1.5 mg/kg for 12 days
Text: (§1) The samples analyzed were sera taken on the day of first treatment before being given test article (day 0), after 12 days of treatment (day 12) and 7 days after the last treatment (end or wash-out).

total serum testosterone = assay: Serum testosterone in male baboons given Clomid, Enclomid or Zuclomid; type: in vivo; conditions: for Effect on total serum testosterone: 1.5 mg/kg for 12 days, male baboons
Text: as §1

[2] = Placebo controlled challenge study Androxal vs Androgel: side effects; type: in vivo, human; conditions: hypogonadal men, two week exposure
Experimental: (§2) Androgel® (Solvay Pharmaceuticals, Inc.) consists of a cream that administers exogenous testosterone in a transdermal matrix.
(§3) The study enrolled 62 hypogonadal men with testosterone levels less than 300 ng/dl (normal 298-1034 ng/dl) that were randomized into 6 different arms, three doses of Androxal™ (12.5 mg, 25 mg, and 50 mg), placebo, and both high and low doses of Androgel®. Half of the men in each of the Androxal™ and placebo arms were randomized into cohorts that underwent in-clinic sessions on days 1 and 14 to determine pharmacokinetic parameters for Androxal™ as well as cyclical changes in testosterone. The placebo and Androxal™ doses were administered in a double blind fashion. The Androgel® cream was administered in an open label fashion. Half of the Androgel® patients underwent in-clinic sessions similar to the other patients in the study. Following the two week drug exposure patients were followed for an additional seven to ten days to determine the status of their testosterone levels.

serum LH, FSH = assay: Placebo controlled challenge study Androxal vs Androgel: serum LH and FSH; type: in vivo, human
Experimental: as §2, §3

serum LH, FSH, PRL = assay: Serum LH, FSH and prolactin in male baboons; type: in vivo; conditions: during the study
Text: as §1

triglycerides = assay: Placebo controlled challenge study Androxal vs Androgel: triglycerides; type: in vivo, human; conditions: after two weeks of therapy, non-dose dependent; placebo 5.9% reduction
Experimental: as §2, §3

total testosterone = assay: Placebo controlled challenge study Androxal vs Androgel: total testosterone; type: in vivo, human; conditions: for Mean increase in testosterone from baseline: hypogonadal men, two weeks
Experimental: as §2, §3

FSH, LH, testosterone = conditions: cited from earlier work

CCN(CC)CCOc1ccc(/C(=C(/Cl)c2ccccc2)c2ccccc2)cc1 [Zuclomid, cis-clomiphene, reference compound]
Residual blood levels [1]: in excess of one month
Increase in serum cholesterol levels (serum cholesterol): 22%
Effect on total serum testosterone (total serum testosterone): did not raise total serum testosterone to any extent
Hematocrit (male baboons): demonstrated a statistical difference
Red blood cell population (male baboons): substantive effects

CCN(CC)CCOc1ccc(/C(=C(\Cl)c2ccccc2)c2ccccc2)cc1 [Enclomid, trans-clomiphene]
Side effects different than placebo [2]: no side effects noted
Serum LH in the follow-up period (serum LH, FSH; 7-10 days after cessation of daily treatment): remained high
Serum FSH in the follow-up period (serum LH, FSH; after cessation of treatment): remains high
Serum levels of LH during treatment (serum LH, FSH; hypogonadal male subjects (FIG. 5)): statistically significant increase
Serum levels of FSH during treatment (serum LH, FSH; hypogonadal male subjects (FIG. 6)): statistically significant increase
Serum prolactin (PRL) (serum LH, FSH, PRL): decrease in serum prolactin
Decrease in serum cholesterol levels (serum cholesterol): 8%
Reduction in triglycerides (average decrease) (triglycerides): 19.1%
Effect on total serum testosterone (total serum testosterone): significant increases in total serum testosterone
Change in total serum testosterone after cessation of treatment (total serum testosterone; between day 12 and day 18 (washout)): significant drop
Platelet count (12-day treatment): lowering of the platelet count
Eosinophil counts (male baboons): raising the counts
Lymphocytes, count and per cent (male baboons): increase
Red blood cell population (male baboons): substantive effects
Per cent of granulocytes in the blood (very strong after the 7-day washout period): strong effect
Coefficient of variation (CV) of mean total testosterone (total testosterone; 50 mg dose, after 15 days): 29%
Mean total testosterone (total testosterone; 50 mg dose, after 15 days): 589 ± 172 ng/dL
Mean increase in testosterone from baseline (total testosterone; high dose (50 mg) oral): 294 ng/dL
Mean increase in testosterone from baseline (total testosterone; low dose (12.5 mg) oral): 169 ng/dL
Mean increase in testosterone from baseline (total testosterone; mid dose (25 mg) oral): 247 ng/dL

CCN(CC)CCOc1ccc(C(=C(Cl)c2ccccc2)c2ccccc2)cc1 [Clomid, clomiphene]
FSH, LH after treatment (FSH, LH, testosterone; both young and old men): increases in FSH, LH
Free and total testosterone after treatment (FSH, LH, testosterone; men, young men showing significant increases): increases in free and total testosterone
Change in serum cholesterol levels (serum cholesterol): slight increase
Variability of total testosterone levels (coefficients of variation) (total serum testosterone; day 6 and later, compared to animals receiving Enclomid): more variable total testosterone levels
